Key:
Assay in all cases: microbe, parasite or virus in culture
Type in all cases: functional
[1] = system: Listeria monocytogenes; settings: ATCC 7644, time 48 hrs
Description: Antibiofilm activity against Listeria monocytogenes ATCC 7644 assessed as inhibition of biofilm formation at 4 ug/ml measured after 48 hrs by crystal violet staining based assay relative to control

[2] = system: Pseudomonas aeruginosa; settings: ATCC 50071, time 48 hrs
Description: Antibiofilm activity against Pseudomonas aeruginosa ATCC 50071 assessed as inhibition of biofilm formation at 4 ug/ml measured after 48 hrs by crystal violet staining based assay relative to control

[3] = system: Staphylococcus aureus; settings: ATCC 25923, time 48 hrs
Description: Antibiofilm activity against Staphylococcus aureus ATCC 25923 assessed as inhibition of biofilm formation at 4 ug/ml measured after 48 hrs by crystal violet staining based assay relative to control

[4] = system: Listeria monocytogenes; settings: ATCC 7644, time 48 hrs; remark: listed apart in the source
Description: Antibiofilm activity against Listeria monocytogenes ATCC 7644 assessed as inhibition of biofilm formation at 8 ug/ml measured after 48 hrs by crystal violet staining based assay relative to control

[5] = system: Pseudomonas aeruginosa; settings: ATCC 50071, time 48 hrs; remark: listed apart in the source
Description: Antibiofilm activity against Pseudomonas aeruginosa ATCC 50071 assessed as inhibition of biofilm formation at 8 ug/ml measured after 48 hrs by crystal violet staining based assay relative to control

[6] = system: Staphylococcus aureus; settings: ATCC 25923, time 48 hrs; remark: listed apart in the source
Description: Antibiofilm activity against Staphylococcus aureus ATCC 25923 assessed as inhibition of biofilm formation at 8 ug/ml measured after 48 hrs by crystal violet staining based assay relative to control

[7] = system: Escherichia coli; settings: DSM 8579, time 48 hrs
Description: Antibiofilm activity against Escherichia coli DSM 8579 assessed as inhibition of biofilm formation at 40 ug/ml measured after 48 hrs by crystal violet staining based assay relative to control

[8] = system: Escherichia coli; settings: DSM 8579, time 48 hrs; remark: listed apart in the source
Description: Antibiofilm activity against Escherichia coli DSM 8579 assessed as inhibition of biofilm formation at 80 ug/ml measured after 48 hrs by crystal violet staining based assay relative to control

[9] = system: Listeria monocytogenes; settings: ATCC 7644, time 48 hrs; remark: listed apart in the source
Description: Antibiofilm activity against Listeria monocytogenes ATCC 7644 assessed as inhibition of bacterial metabolism within the biofilm at 4 ug/ml measured after 48 hrs by MTT assay relative to control

[10] = system: Pseudomonas aeruginosa; settings: ATCC 50071, time 48 hrs; remark: listed apart in the source
Description: Antibiofilm activity against Pseudomonas aeruginosa ATCC 50071 assessed as inhibition of bacterial metabolism within the biofilm at 4 ug/ml measured after 48 hrs by MTT assay relative to control

[11] = system: Staphylococcus aureus; settings: ATCC 25923, time 48 hrs; remark: listed apart in the source
Description: Antibiofilm activity against Staphylococcus aureus ATCC 25923 assessed as inhibition of bacterial metabolism within the biofilm at 4 ug/ml measured after 48 hrs by MTT assay relative to control

[12] = system: Listeria monocytogenes; settings: ATCC 7644, time 48 hrs; remark: listed apart in the source
Description: Antibiofilm activity against Listeria monocytogenes ATCC 7644 assessed as inhibition of bacterial metabolism within the biofilm at 8 ug/ml measured after 48 hrs by MTT assay relative to control

[13] = system: Pseudomonas aeruginosa; settings: ATCC 50071, time 48 hrs; remark: listed apart in the source
Description: Antibiofilm activity against Pseudomonas aeruginosa ATCC 50071 assessed as inhibition of bacterial metabolism within the biofilm at 8 ug/ml measured after 48 hrs by MTT assay relative to control

[14] = system: Staphylococcus aureus; settings: ATCC 25923, time 48 hrs; remark: listed apart in the source
Description: Antibiofilm activity against Staphylococcus aureus ATCC 25923 assessed as inhibition of bacterial metabolism within the biofilm at 8 ug/ml measured after 48 hrs by MTT assay relative to control

[15] = system: Escherichia coli; settings: DSM 8579, time 48 hrs; remark: listed apart in the source
Description: Antibiofilm activity against Escherichia coli DSM 8579 assessed as inhibition of bacterial metabolism within the biofilm at 40 ug/ml measured after 48 hrs by MTT assay relative to control

[16] = system: Escherichia coli; settings: DSM 8579, time 48 hrs; remark: listed apart in the source
Description: Antibiofilm activity against Escherichia coli DSM 8579 assessed as inhibition of bacterial metabolism within the biofilm at 80 ug/ml measured after 48 hrs by MTT assay relative to control

Compound | inhibition at 4 µg/mL [1] [%] | inhibition at 4 µg/mL [2] [%] | inhibition at 4 µg/mL [3] [%] | inhibition at 8 µg/mL [4] [%] | inhibition at 8 µg/mL [5] [%] | inhibition at 8 µg/mL [6] [%] | inhibition at 40 µg/mL [7] [%] | inhibition at 80 µg/mL [8] [%] | inhibition at 4 µg/mL [9] [%] | inhibition at 4 µg/mL [10] [%] | inhibition at 4 µg/mL [11] [%] | inhibition at 8 µg/mL [12] [%] | inhibition at 8 µg/mL [13] [%] | inhibition at 8 µg/mL [14] [%] | inhibition at 40 µg/mL [15] [%] | inhibition at 80 µg/mL [16] [%]
CC1(C)C[C@@H](O)C[C@](C)(O)/C1=C\C(=O)O | 0 | 0 | 12.6 | 10.2 | 55.5 | 31.5 | 28.6 | 50.3 | 13.1 | 29.2 | 44.7 | 33.3 | 35.7 | 49.3 | 14.2 | 38.6
C=CC(C)(O)C/C=C/C(C)(C)O (configuration not stated) | 78 | 75.9 | 13.3 | 85 | 84.7 | 40.7 | 30.4 | 78.6 | 9.1 | 68.1 | 42.2 | 38.1 | 71.3 | 44.4 | 52 | 64
COc1c(C(C)C)cc2c(c1O)[C@]1(C(=O)O)CCCC(C)(C)[C@@H]1CC2 (relative stereo) | 6.5 | 27.2 | 0 | 17.8 | 46.8 | 8 | 92.6 | 92.8 | 6.5 | 27.2 | 0 | 17.8 | 46.8 | 8 | 46.3 | 89.1
CC1(C)C[C@H]2[C@H]1CC[C@]1(C)C[C@]2(O)CC[C@@H]1O | 8.7 | 42.4 | 0 | 25.7 | 53.6 | 17.9 | 24.3 | 71.9 | 31.1 | 0 | 33.3 | 42.2 | 24.6 | 48.6 | 38.3 | 57.8
C=C1CC/C=C(/C)[C@H](O)C[C@@H]2[C@@H]1CC2(C)CO (some centres not stated) | 13.7 | 18.2 | 0 | 51.1 | 34.3 | 34.9 | 27.4 | 43.1 | 22.4 | 27.4 | 27.7 | 36.8 | 43.1 | 31.1 | 13.9 | 45.4
CC(=O)O[C@H]1CC(C)(C)[C@@H]2CC[C@]3(C)C[C@]12CC[C@H]3O | 14.6 | 15.2 | 3.2 | 23.3 | 45.9 | 16.4 | 0 | 29.6 | 20.6 | 30.4 | 0 | 29.4 | 45.9 | 4.7 | 0 | 42
CC(C)c1cc2c(c(O)c1O)C1=C(CC2)C(C)(C)CCC1=O [SAGEONE] | 0 | 0 | 0 | 0.9 | 0 | 0 | 13.7 | 45.5 | 0 | 0 | 0 | 0.9 | 0 | 0 | 6.8 | 24.6
CC1(C)C[C@H](O)[C@]23CC[C@@H](O)[C@](C)(CC[C@@H]12)C3 | 8.7 | 39.8 | 0 | 17.8 | 40 | 0 | 3.2 | 45.4 | 8.7 | 39.8 | 0 | 17.8 | 40 | 0 | 1.6 | 37.5
CC(C)c1cc2c(cc1O)[C@@]1(C)CCCC(C)(C)[C@@H]1CC2 [FERRUGINOL] | 35.6 | 52.2 | 38.5 | 60.9 | 53.2 | 44.6 | 19.2 | 37.5 | 0 | 20.3 | 0 | 14.2 | 45.2 | 27.9 | 9.1 | 24.7
CO[C@H]1c2cc(C(C)C)c(O)c(O)c2[C@@]23CCCC(C)(C)[C@@H]2[C@@H]1OC3=O | 16.2 | 14.7 | 23.5 | 23.8 | 84.7 | 63.3 | 32.9 | 47.4 | 0 | 3.1 | 9.4 | 29.8 | 30.9 | 22.9 | 0 | 27.3
COc1c(C(C)C)cc2c(c1O)[C@@]1(C(=O)O)CCCC(C)(C)[C@@H]1CC2 | 74.1 | 68.6 | 31.9 | 81 | 81.2 | 72 | 3.2 | 66.3 | 4 | 43.2 | 0 | 6.7 | 71.6 | 0 | 67.2 | 96.1
C=C(C)[C@@H]1CC[C@]2(C(=O)O)CC[C@]3(C)[C@H](CC[C@@H]4[C@@]5(C)CC[C@H](O)C(C)(C)[C@@H]5CC[C@]43C)[C@@H]12 [BETULINIC ACID] | 75.6 | 38 | 30.7 | 80.4 | 63.4 | 75.2 | 33.4 | 54.4 | 12.7 | 31.9 | 0 | 18.7 | 72.2 | 14 | 15 | 22.6

— ChEMBL document CHEMBL4813932, “Terpenoid Constituents of Perovskia artemisioides Aerial Parts with Inhibitory Effects on Bacterial Biofilm Growth” (2021)
